# Calls of active or inactive are those of the source.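 The calls were made as follows: active = at least one rat sex group has a carcinogenic potency value and tumor site recorded; inconclusive = only rat studies were judged inadequate by the national testing program; inactive = no potency or tumor site, with negative rat experiments.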 *1 amine or outer side, *2 acyl side, *3 side chain or, on linkers, in order; H or OH if unused. Where a SMILES comes first, the peptide text is derived from it. Bridges are numbered along the chain shown (N, C = ends). Roman numbers before positions name the chains, in order. [ ]: non-standard residue; d: D form. Actinocin(9to1) = Cc1c2oc3c(C)ccc(C(=O)[*:1])c3nc-2c(C(=O)[*:2])c(N)c1=O; NMeV = CN[C@H](C(=O)O)C(C)C; Sar = CNCC(=O)O
# System: rat chronic carcinogenicity bioassay, TD50
# Assay: DSSTox (CPDBAS) Carcinogenic Potency Database Summary Rat Bioassay Results
# Conditions: for Potency: stronger effect = lower value
# How it was run: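 Chronic long-term rat cancer bioassays from literature and NCI/NTP, taking the most positive result per sex. TD50 in mmol converted to a 1–100 Activity Score from log10(1/TD50). Mixtures lacking TD50 scored 50.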
# [1] = TD50_Rat_Note: no positive results, TargetSites_Rat_Female: no positive results
# [2] = TargetSites_Rat_Female: no positive results
# [3] = TD50_Rat_Note: TD50 is harmonic mean of more than one positive test, TargetSites_Rat_Female: liver
# [4] = TD50_Rat_Note: TD50 is harmonic mean of more than one positive test
# [5] = TD50_Rat_Note: no positive results
smiles,measurement,setting,value
OCN(CO)c1nc(N(CO)CO)nc(N(CO)CO)n1,Potency,"TargetSites_Rat_Female: kidney, mammary gland",10.2 mg/kg/day
Cc1ccc(C)c(OCCCC(C)(C)C(=O)O)c1,Potency,[1],247 mg/kg/day
NCC(=O)O,Potency,TargetSites_Rat_Female: kidney,25700 mg/kg/day
CC(=O)OC[C@H]1O[C@H](O[C@]2(COC(C)=O)O[C@H](COC(=O)C(C)C)[C@@H](OC(=O)C(C)C)[C@@H]2OC(=O)C(C)C)[C@H](OC(=O)C(C)C)[C@@H](OC(=O)C(C)C)[C@@H]1OC(=O)C(C)C,outcome,[1],inactive; no positive results
CCn1nc(C)c2c1C(c1ccccc1)=NCC(=O)N2,outcome,[1],inactive; no positive results
c1ccncc1,Potency,[2],67.3 mg/kg/day
FCC(F)(F)F,Potency,[2],29900 mg/kg/day
CCc1cccc2c3c([nH]c12)C(CC)(CC(=O)O)OCC3 (configuration not stated),outcome,[1],inactive; no positive results
NCCCCCCCCCCC(=O)O,Potency,[2],1100 mg/kg/day
Cc1ncc[nH]1,Potency,"TD50_Rat_Note: TD50 is harmonic mean of more than one positive test, TargetSites_Rat_Female: thyroid gland",868 mg/kg/day
COC(=O)[C@H](Cc1ccccc1)NC(=O)[C@@H](N)CC(=O)O (H-Asp-Phe-OMe),outcome,[1],inactive; no positive results
CC(C)C(C(=O)OC(C#N)c1cccc(Oc2ccccc2)c1)c1ccc(Cl)cc1 (configuration not stated),outcome,[1],inactive; no positive results
S=C1NCCN1,Potency,"TD50_Rat_Note: TD50 is harmonic mean of more than one positive test, greater than ten-fold variation among TD50 values for positive res, TargetSites_Rat_Female: thyroid gland, TargetSites_Rat_BothSexes: liver",8.13 mg/kg/day
OCc1ccco1,Potency,[2],9.6 mg/kg/day
N=c1ccn2c(n1)O[C@H]1[C@H](O)[C@@H](CO)O[C@H]12,outcome,[1],inactive; no positive results
CCC1(c2ccccc2)C(=O)N=C(O)NC1=O (configuration not stated),Potency,[3],86 mg/kg/day
CC(C)OC(=O)Nc1cccc(Cl)c1,outcome,[1],inactive; no positive results
CCC1(c2ccccc2)C(=O)NCNC1=O,outcome,[1],inactive; no positive results
C/C=C/C=C/C(=O)O,outcome,[1],inactive; no positive results
C=CCN(CC(C)O)N=O (configuration not stated),Potency,"TargetSites_Rat_Female: esophagus, liver, nasal cavity",0.877 mg/kg/day
CN(C)[C@@H]1C(=O)C(C(N)=O)=C(O)[C@@]2(O)C(=O)C3=C(O)c4c(O)cccc4[C@@](C)(O)[C@H]3[C@H](O)[C@@H]12,outcome,[1],inactive; no positive results
O=S(=O)(O)c1cc(S(=O)(=O)O)c2c(N=Nc3ccccc3)c(O)ccc2c1,outcome,[1],inactive; no positive results
O=C(O)C(Cl)Cl,Potency,[4],161 mg/kg/day
CN(C)c1ccccc1,Potency,[2],125 mg/kg/day
N[C@@H](Cc1cnc[nH]1)C(=O)O,outcome,[1],inactive; no positive results
O=NN(CCCC(F)(F)F)CCCC(F)(F)F,Potency,"TD50_Rat_Note: TD50 is harmonic mean of more than one positive test, TargetSites_Rat_Female: liver, lung",0.748 mg/kg/day
COc1cc2c(c3oc4cccc(O)c4c(=O)c13)C1C=COC1O2 (configuration not stated),Potency,"TD50_Rat_Note: TD50 is harmonic mean of more than one positive test, greater than ten-fold variation among TD50 values for positive res, TargetSites_Rat_BothSexes: liver",0.152 mg/kg/day
CC1SC(C)N(N=O)C(C)S1 (configuration not stated),Potency,"TargetSites_Rat_Female: esophagus, liver, oral cavity",0.483 mg/kg/day
O=C1C=C2C(=CCOC2O)O1 (configuration not stated),outcome,[1],inactive
"Cc1c2oc3c(C)ccc(C(=O)N[C@@H]4C(=O)N[C@H](C(C)C)C(=O)N5CCC[C@H]5C(=O)N(C)CC(=O)N(C)[C@@H](C(C)C)C(=O)O[C@@H]4C)c3nc-2c(C(=O)N[C@@H]2C(=O)N[C@H](C(C)C)C(=O)N3CCC[C@H]3C(=O)N(C)CC(=O)N(C)[C@@H](C(C)C)C(=O)O[C@@H]2C)c(N)c1=O (I: T[dV]P[Sar][NMeV] / II: T[dV]P[Sar][NMeV]; ester I:1-I:C, II:1-II:C; linker I:N-II:N via Actinocin(9to1))",Potency,"TD50_Rat_Note: positive test results only by intraperitoneal or intravenous injection, TD50 is harmonic mean of more than one positive, TargetSites_Rat_Female: peritoneal cavity",0.00111 mg/kg/day
Cc1ncc([N+](=O)[O-])n1C,Potency,TargetSites_Rat_Female: mammary gland,17 mg/kg/day
CCSCC[C@H](N)C(=O)O,Potency,"TD50_Rat_Note: TD50 value is overestimated as upper 99% confidence limit from study with 100% tumor incidence but no lifetable, harmoni",4.97 mg/kg/day
CN(C)c1ccc(C(=N)c2ccc(N(C)C)cc2)cc1,Potency,,11 mg/kg/day
O=NN(CCO)CC(O)CO (configuration not stated),Potency,TargetSites_Rat_Female: liver,5.98 mg/kg/day
COc1ccccc1N,Potency,"TD50_Rat_Note: TD50 is harmonic mean of more than one positive test, TargetSites_Rat_Female: urinary bladder",29.7 mg/kg/day
FC(F)(F)C(Cl)Cl,Potency,"TD50_Rat_Note: TD50 is harmonic mean of more than one positive test, greater than ten-fold variation among TD50 values for positive res, TargetSites_Rat_Female: liver",2370 mg/kg/day
CN1C2CC[C@@H]1CC(NC(=O)c1cc(Cl)cc3c1OC(C)(C)C3)C2 (some centres not stated),outcome,[1],inactive; no positive results
CCCCCCCC/C=C\CCCCCCCC(=O)O,outcome,[1],inactive; no positive results
O[C@H]([C@H](O)[C@@H](O)CBr)[C@H](O)CBr,Potency,TD50_Rat_Note: positive test results only by intraperitoneal or intravenous injection,8.37 mg/kg/day
CC(C)=NO,Potency,[2],12.1 mg/kg/day
O=NN1CCCCC1C(=O)O (configuration not stated),outcome,[1],inactive; no positive results
O.O.O.O.O.O.O=S(=O)([O-])[O-].[Ni+2],outcome,[1],inactive; no positive results
CC[N+](=O)[O-],outcome,[1],inactive; no positive results
O=C1c2ccccc2C(=O)c2c(O)cccc21,Potency,[4],93.5 mg/kg/day
C=CC#N,Potency,"TD50_Rat_Note: TD50 is harmonic mean of more than one positive test, greater than ten-fold variation among TD50 values for positive res, TargetSites_Rat_Female: ear Zymbals gland, mammary gland, nasal cavity, nervous system, oral cavity, small intestine, stomach",16.9 mg/kg/day
Cn1nc(CO)nc1NCCCOc1cccc(CN2CCCCC2)c1,Potency,"TD50_Rat_Note: TD50 is harmonic mean of more than one positive test, TargetSites_Rat_Female: stomach",479 mg/kg/day
NNc1nc(-c2ccc(N)cc2)cs1,Potency,"TargetSites_Rat_Female: hematopoietic system, mammary gland",1.03 mg/kg/day
C=C/C1=C/[C@H](C)[C@](C)(OC(C)=O)C(=O)OCC2=CC[N+]3(C)CC[C@@H](OC1=O)C23[O-] (some centres not stated),Potency,"TargetSites_Rat_BothSexes: liver, vascular system",0.5 mg/kg/day
C=CCCl,outcome,"TD50_Rat_Note: only experiment is NCI/NTP bioassay inadequate, TargetSites_Rat_Female: NTP bioassay inadequate",ntp bioassay inadequate
[Cl-].[Cl-].[Cl-].[Fe+3],outcome,[1],inactive; no positive results
COC(=O)C(c1ccccc1)C1CCCCN1 (configuration not stated),outcome,[1],inactive; no positive results
CC1(C)C(=O)NC(=O)NC1=O,outcome,[5],inactive; no positive results
ClC(Br)Br,outcome,[1],inactive; no positive results
O=[O+][O-],outcome,[1],inactive; no positive results
NN,Potency,"TD50_Rat_Note: TD50 is harmonic mean of more than one positive test, greater than ten-fold variation among TD50 values for positive res, TargetSites_Rat_Female: liver, lung, nasal cavity",0.613 mg/kg/day
C1CC2OC2CC1C1CO1 (configuration not stated),outcome,[1],inactive
CC1=C(/C=C/C(C)=C/C=C/C(C)=C/C=C/C=C(C)/C=C/C=C(C)/C=C/C2=C(C)CCCC2(C)C)C(C)(C)CCC1,outcome,[5],inactive; no positive results
N#CN=C(N)N,outcome,[1],inactive; no positive results
CN(N=O)c1ccccc1,Potency,"TD50_Rat_Note: TD50 is harmonic mean of more than one positive test, harmonic mean of TD50 includes a value for upper 99% confidence li, TargetSites_Rat_Female: esophagus",0.142 mg/kg/day
CCN(CC(F)(F)F)N=O,Potency,,2.52 mg/kg/day
CNC(=O)Oc1cccc2ccccc12,Potency,TargetSites_Rat_BothSexes: all tumor bearing animals,14.1 mg/kg/day
CN=[N+](C)[O-],Potency,[4],0.0466 mg/kg/day
O=C1NS(=O)(=O)c2ccccc21,Potency,"TD50_Rat_Note: TD50 is harmonic mean of more than one positive test, greater than ten-fold variation among TD50 values for positive res, TargetSites_Rat_Female: no positive results",2140 mg/kg/day
same,outcome,[5],inactive; no positive results
O=CC1CO1 (configuration not stated),outcome,[1],inactive
Cc1ccc(N=Nc2c(O)c(S(=O)(=O)O)cc3ccc(S(=O)(=O)O)cc23)c(C)c1,Potency,"TD50_Rat_Note: TD50 value less than the reported upper confidence limit, TD50 is harmonic mean of more than one positive test, harmonic, TargetSites_Rat_Female: liver",415 mg/kg/day
CCC(Cl)CCC(Cl)C(Cl)CC(Cl)C(Cl)C(Cl)CCl (configuration not stated),Potency,"TD50_Rat_Note: TD50 is harmonic mean of more than one positive test, TD50_Rat_mmol was not calculated for this mixture, but Activiity S, TargetSites_Rat_Female: liver, thyroid gland",222 mg/kg/day
ClC(Cl)Br,Potency,"TD50_Rat_Note: TD50 is harmonic mean of more than one positive test, greater than ten-fold variation among TD50 values for positive res, TargetSites_Rat_Female: kidney, large intestine, liver",72.5 mg/kg/day
CN(N=O)C(=O)c1c(N(C)N=O)ncn1C,Potency,TargetSites_Rat_BothSexes: stomach,0.183 mg/kg/day
Clc1ccc(Cl)cc1,Potency,[2],644 mg/kg/day
Nc1ccc(N=Nc2ccc(-c3ccc(N=Nc4c(S(=O)(=O)O)cc5cc(S(=O)(=O)O)c(N=Nc6ccccc6)c(O)c5c4N)cc3)cc2)c(N)c1,Potency,[3],1.39 mg/kg/day
C[C@]12C/C(=C/O)C(=O)C[C@@H]1CC[C@@H]1[C@@H]2CC[C@@]2(C)[C@H]1CC[C@]2(C)O,Potency,"TargetSites_Rat_Female: liver, lung, skin",66.9 mg/kg/day
CCO,Potency,[2],9110 mg/kg/day
Oc1ccccc1-c1ccccc1,Potency,"TD50_Rat_Note: TD50 is harmonic mean of more than one positive test, greater than ten-fold variation among TD50 values for positive res, TargetSites_Rat_Female: urinary bladder",672 mg/kg/day
same,Potency,,232 mg/kg/day
O,outcome,[1],inactive; no positive results
C/C=C/c1ccc(OC)cc1,outcome,[1],inactive; no positive results
C[C@@H]1C[C@H]2[C@@H]3CCC4=CC(=O)C=C[C@]4(C)[C@@]3(F)[C@@H](O)C[C@]2(C)[C@@]1(O)C(=O)CO,outcome,[5],inactive; no positive results
C=CCc1ccc2c(c1)OCO2,Potency,"TD50_Rat_Note: TD50 is harmonic mean of more than one positive test, TargetSites_Rat_BothSexes: liver",441 mg/kg/day
c1ccc2ccccc2c1,Potency,"TD50_Rat_Note: TD50 is harmonic mean of more than one positive test, TargetSites_Rat_Female: nasal cavity",22.1 mg/kg/day
Nc1ccc(/C=C/c2ccc(N)cc2S(=O)(=O)O)c(S(=O)(=O)O)c1,outcome,[1],inactive; no positive results
ClC1=C(Cl)[C@]2(Cl)[C@@H]3[C@H]4C[C@H]([C@@H]5O[C@H]45)[C@@H]3[C@@]1(Cl)C2(Cl)Cl,outcome,[1],inactive; no positive results

# Source: PubChem BioAssay AID1208 (EPA DSSTox, 2008)
